Laboratory results as given in ChEMBL document CHEMBL1151424, “In vitro efficacy of new antifolates against trimethoprim-resistant Bacillus anthracis” (Antimicrob Agents Chemother, 2007).
Converted amounts (≈) assume the structure as drawn.

System: not listed separately
Assay: Inhibition of Bacillus cereus recombinant DHFR expressed in Escherichia coli BL21(DE3) assessed as enzyme-dependent NADPH consumption
Details: not given

Structure (SMILES)	IC50 [nM]
COc1cc(Cc2cnc(N)nc2N)cc(/C=C/C(=O)N2N=Cc3ccccc3C2c2ccc(C)cc2)c1OC (stereo not given)	270
COc1cc(Cc2cnc(N)nc2N)cc(/C=C/C(=O)N2N=Cc3ccccc3C2C2CCCCC2)c1OC (stereo not given)	270
CCCC1c2ccccc2C=NN1C(=O)/C=C/c1cc(Cc2cnc(N)nc2N)cc(O)c1OC (stereo not given)	270
COc1cc(Cc2cnc(N)nc2N)cc(/C=C/C(=O)N2Cc3ccccc3C=N2)c1OC	37000
COC(=O)C(C)(C)C1c2ccccc2C=NN1C(=O)/C=C/c1cc(Cc2cnc(N)nc2N)cc(OC)c1OC (stereo not given)	270
COc1cc(Cc2cnc(N)nc2N)cc(/C=C/C(=O)N2N=Cc3ccccc3C2c2ccccc2)c1OC (stereo not given)	270
COc1cc(Cc2cnc(N)nc2N)cc(/C=C/C(=O)N2N=Cc3ccccc3C2CCCO)c1OC (stereo not given)	270
COc1cc(Cc2cnc(N)nc2N)cc(CCC(=O)N2N=Cc3ccccc3C2C)c1OC (stereo not given)	37000
CCC1c2ccccc2C=NN1C(=O)/C=C/c1cc(Cc2cnc(N)nc2N)cc(OC)c1OC (stereo not given)	270
CCCCC1c2ccccc2C=NN1C(=O)/C=C/c1cc(Cc2cnc(N)nc2N)cc(OC)c1OC (stereo not given)	270
COc1cc(Cc2cnc(N)nc2N)cc(/C=C/C(=O)N2N=Cc3ccccc3C2C2CCCC2)c1OC (stereo not given)	270

System: not listed separately
Assay: Selectivity ratio of IC50 for human recombinant DHFR to IC50 for histidine-tagged Bacillus anthracis Sterne recombinant DHFR
Details: not given

Structure (SMILES)	Ratio IC50
COc1cc(Cc2cnc(N)nc2N)cc(/C=C/C(=O)N2N=Cc3ccccc3C2c2ccc(C)cc2)c1OC (stereo not given)	> 127
CCCC1c2ccccc2C=NN1C(=O)/C=C/c1cc(Cc2cnc(N)nc2N)cc(O)c1OC (stereo not given)	2040
COc1cc(Cc2cnc(N)nc2N)cc(/C=C/C(=O)N2N=Cc3ccccc3C2c2ccccc2)c1OC (stereo not given)	> 348
CCC1c2ccccc2C=NN1C(=O)/C=C/c1cc(Cc2cnc(N)nc2N)cc(OC)c1OC (stereo not given)	> 281
CCCCC1c2ccccc2C=NN1C(=O)/C=C/c1cc(Cc2cnc(N)nc2N)cc(OC)c1OC (stereo not given)	> 118
COc1cc(Cc2cnc(N)nc2N)cc(/C=C/C(=O)N2N=Cc3ccccc3C2C2CCCC2)c1OC (stereo not given)	> 110

System: Bacillus anthracis
Assay: Antibacterial activity against Bacillus anthracis Ames (NR-411) after 16 hrs by modified alamar blue microdilution broth assay
Format: functional
Details: Ames NR-411, 16 h

Structure (SMILES)	MIC [µg/mL]
COc1cc(Cc2cnc(N)nc2N)cc(/C=C/C(=O)N2N=Cc3ccccc3C2c2ccc(C)cc2)c1OC (stereo not given)	≤ 51.2
COc1cc(Cc2cnc(N)nc2N)cc(/C=C/C(=O)N2N=Cc3ccccc3C2C2CCCCC2)c1OC (stereo not given)	≤ 12.8
CCCC1c2ccccc2C=NN1C(=O)/C=C/c1cc(Cc2cnc(N)nc2N)cc(O)c1OC (stereo not given)	≤ 16
COc1cc(Cc2cnc(N)nc2N)cc(/C=C/C(=O)N2N=Cc3ccccc3C2c2ccccc2)c1OC (stereo not given)	> 51.2
COc1cc(Cc2cnc(N)nc2N)cc(/C=C/C(=O)N2N=Cc3ccccc3C2CCCO)c1OC (stereo not given)	> 102
COc1cc(Cc2cnc(N)nc2N)cc(CCC(=O)N2N=Cc3ccccc3C2C)c1OC (stereo not given)	≤ 64
CCC1c2ccccc2C=NN1C(=O)/C=C/c1cc(Cc2cnc(N)nc2N)cc(OC)c1OC (stereo not given)	≤ 25.6
CCCCC1c2ccccc2C=NN1C(=O)/C=C/c1cc(Cc2cnc(N)nc2N)cc(OC)c1OC (stereo not given)	≤ 12.8
COc1cc(Cc2cnc(N)nc2N)cc(/C=C/C(=O)N2N=Cc3ccccc3C2C2CCCC2)c1OC (stereo not given)	≤ 12.8

Target: T1, Dihydrofolate reductase (Homo sapiens, UniProt P00374)
T1 sequence (P00374 whole entry): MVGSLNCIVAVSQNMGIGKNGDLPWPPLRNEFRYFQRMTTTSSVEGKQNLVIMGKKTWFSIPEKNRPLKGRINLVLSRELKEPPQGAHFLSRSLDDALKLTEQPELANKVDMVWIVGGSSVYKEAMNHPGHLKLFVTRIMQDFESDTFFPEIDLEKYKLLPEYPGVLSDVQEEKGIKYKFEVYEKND
Assay: Inhibition of human recombinant DHFR
Details: not given

Structure (SMILES)	IC50 [nM]
COc1cc(Cc2cnc(N)nc2N)cc(/C=C/C(=O)N2N=Cc3ccccc3C2c2ccc(C)cc2)c1OC (stereo not given)	> 19000
COc1cc(Cc2cnc(N)nc2N)cc(/C=C/C(=O)N2N=Cc3ccccc3C2C2CCCCC2)c1OC (stereo not given)	> 19000
CCCC1c2ccccc2C=NN1C(=O)/C=C/c1cc(Cc2cnc(N)nc2N)cc(O)c1OC (stereo not given)	110000
COC(=O)C(C)(C)C1c2ccccc2C=NN1C(=O)/C=C/c1cc(Cc2cnc(N)nc2N)cc(OC)c1OC (stereo not given)	813000
COc1cc(Cc2cnc(N)nc2N)cc(/C=C/C(=O)N2N=Cc3ccccc3C2c2ccccc2)c1OC (stereo not given)	> 16000
COc1cc(Cc2cnc(N)nc2N)cc(/C=C/C(=O)N2N=Cc3ccccc3C2CCCO)c1OC (stereo not given)	> 25000
COc1cc(Cc2cnc(N)nc2N)cc(CCC(=O)N2N=Cc3ccccc3C2C)c1OC (stereo not given)	> 28000
CCC1c2ccccc2C=NN1C(=O)/C=C/c1cc(Cc2cnc(N)nc2N)cc(OC)c1OC (stereo not given)	> 27000
CCCCC1c2ccccc2C=NN1C(=O)/C=C/c1cc(Cc2cnc(N)nc2N)cc(OC)c1OC (stereo not given)	> 20000
COc1cc(Cc2cnc(N)nc2N)cc(/C=C/C(=O)N2N=Cc3ccccc3C2C2CCCC2)c1OC (stereo not given)	> 22000

System: Bacillus cereus
Assay: Antibacterial activity against Bacillus cereus up to 10 hrs by growth inhibition assay
Format: functional
Details: not given

Structure (SMILES)	MIC50 [µg/mL]
COc1cc(Cc2cnc(N)nc2N)cc(/C=C/C(=O)N2N=Cc3ccccc3C2c2ccc(C)cc2)c1OC (stereo not given)	2.6 (≈ 4.86 µM)
COc1cc(Cc2cnc(N)nc2N)cc(/C=C/C(=O)N2N=Cc3ccccc3C2C2CCCCC2)c1OC (stereo not given)	2.6 (≈ 4.94 µM)
CCCC1c2ccccc2C=NN1C(=O)/C=C/c1cc(Cc2cnc(N)nc2N)cc(O)c1OC (stereo not given)	2.6 (≈ 5.5 µM)
COC(=O)C(C)(C)C1c2ccccc2C=NN1C(=O)/C=C/c1cc(Cc2cnc(N)nc2N)cc(OC)c1OC (stereo not given)	2.6 (≈ 4.77 µM)
COc1cc(Cc2cnc(N)nc2N)cc(/C=C/C(=O)N2N=Cc3ccccc3C2c2ccccc2)c1OC (stereo not given)	2.6 (≈ 4.99 µM)
COc1cc(Cc2cnc(N)nc2N)cc(/C=C/C(=O)N2N=Cc3ccccc3C2CCCO)c1OC (stereo not given)	2.6 (≈ 5.17 µM)
CCC1c2ccccc2C=NN1C(=O)/C=C/c1cc(Cc2cnc(N)nc2N)cc(OC)c1OC (stereo not given)	2.6 (≈ 5.5 µM)
CCCCC1c2ccccc2C=NN1C(=O)/C=C/c1cc(Cc2cnc(N)nc2N)cc(OC)c1OC (stereo not given)	2.6 (≈ 5.19 µM)
COc1cc(Cc2cnc(N)nc2N)cc(/C=C/C(=O)N2N=Cc3ccccc3C2C2CCCC2)c1OC (stereo not given)	2.6 (≈ 5.07 µM)

Target: T2, Dihydrofolate reductase (Rattus norvegicus, UniProt Q920D2)
T2 sequence (Q920D2 whole entry): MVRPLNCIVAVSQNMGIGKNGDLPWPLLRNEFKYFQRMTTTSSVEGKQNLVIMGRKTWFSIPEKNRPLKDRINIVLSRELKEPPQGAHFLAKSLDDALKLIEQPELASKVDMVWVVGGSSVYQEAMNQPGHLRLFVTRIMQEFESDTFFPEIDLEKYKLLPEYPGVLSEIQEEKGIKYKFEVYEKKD
Assay: Inhibition of rat DHFR
Details: not given

Structure (SMILES)	IC50 [nM]
COc1cc(Cc2cnc(N)nc2N)cc(/C=C/C(=O)N2N=Cc3ccccc3C2c2ccc(C)cc2)c1OC (stereo not given)	25000
COc1cc(Cc2cnc(N)nc2N)cc(/C=C/C(=O)N2N=Cc3ccccc3C2C2CCCCC2)c1OC (stereo not given)	25000
CCCC1c2ccccc2C=NN1C(=O)/C=C/c1cc(Cc2cnc(N)nc2N)cc(O)c1OC (stereo not given)	25000
COC(=O)C(C)(C)C1c2ccccc2C=NN1C(=O)/C=C/c1cc(Cc2cnc(N)nc2N)cc(OC)c1OC (stereo not given)	25000
COc1cc(Cc2cnc(N)nc2N)cc(/C=C/C(=O)N2N=Cc3ccccc3C2c2ccccc2)c1OC (stereo not given)	25000
COc1cc(Cc2cnc(N)nc2N)cc(/C=C/C(=O)N2N=Cc3ccccc3C2CCCO)c1OC (stereo not given)	25000
CCC1c2ccccc2C=NN1C(=O)/C=C/c1cc(Cc2cnc(N)nc2N)cc(OC)c1OC (stereo not given)	25000
CCCCC1c2ccccc2C=NN1C(=O)/C=C/c1cc(Cc2cnc(N)nc2N)cc(OC)c1OC (stereo not given)	25000
COc1cc(Cc2cnc(N)nc2N)cc(/C=C/C(=O)N2N=Cc3ccccc3C2C2CCCC2)c1OC (stereo not given)	25000

System: Bacillus anthracis
Assay: Inhibition of histidine-tagged Bacillus anthracis Sterne recombinant DHFR expressed in Escherichia coli BL21 Star (DE3)pLysS up to 3 mins
Details: BL21, 0.05 h

Structure (SMILES)	IC50 [nM]
COc1cc(Cc2cnc(N)nc2N)cc(/C=C/C(=O)N2N=Cc3ccccc3C2c2ccc(C)cc2)c1OC (stereo not given)	150
COc1cc(Cc2cnc(N)nc2N)cc(/C=C/C(=O)N2N=Cc3ccccc3C2C2CCCCC2)c1OC (stereo not given)	260
CCCC1c2ccccc2C=NN1C(=O)/C=C/c1cc(Cc2cnc(N)nc2N)cc(O)c1OC (stereo not given)	54
COC(=O)C(C)(C)C1c2ccccc2C=NN1C(=O)/C=C/c1cc(Cc2cnc(N)nc2N)cc(OC)c1OC (stereo not given)	300
COc1cc(Cc2cnc(N)nc2N)cc(/C=C/C(=O)N2N=Cc3ccccc3C2c2ccccc2)c1OC (stereo not given)	46
COc1cc(Cc2cnc(N)nc2N)cc(/C=C/C(=O)N2N=Cc3ccccc3C2CCCO)c1OC (stereo not given)	120
COc1cc(Cc2cnc(N)nc2N)cc(CCC(=O)N2N=Cc3ccccc3C2C)c1OC (stereo not given)	92
CCC1c2ccccc2C=NN1C(=O)/C=C/c1cc(Cc2cnc(N)nc2N)cc(OC)c1OC (stereo not given)	96
CCCCC1c2ccccc2C=NN1C(=O)/C=C/c1cc(Cc2cnc(N)nc2N)cc(OC)c1OC (stereo not given)	170
COc1cc(Cc2cnc(N)nc2N)cc(/C=C/C(=O)N2N=Cc3ccccc3C2C2CCCC2)c1OC (stereo not given)	200

System: Bacillus anthracis
Assay: Antibacterial activity against Bacillus anthracis Sterne after 16 hrs by modified alamar blue microdilution broth assay
Format: functional
Details: not given

Structure (SMILES)	MIC [µg/mL]
COc1cc(Cc2cnc(N)nc2N)cc(/C=C/C(=O)N2N=Cc3ccccc3C2c2ccc(C)cc2)c1OC (stereo not given)	≤ 64
COc1cc(Cc2cnc(N)nc2N)cc(/C=C/C(=O)N2N=Cc3ccccc3C2C2CCCCC2)c1OC (stereo not given)	≤ 12.8
CCCC1c2ccccc2C=NN1C(=O)/C=C/c1cc(Cc2cnc(N)nc2N)cc(O)c1OC (stereo not given)	≤ 12.8
COc1cc(Cc2cnc(N)nc2N)cc(/C=C/C(=O)N2Cc3ccccc3C=N2)c1OC	> 128
COC(=O)C(C)(C)C1c2ccccc2C=NN1C(=O)/C=C/c1cc(Cc2cnc(N)nc2N)cc(OC)c1OC (stereo not given)	≤ 128
COc1cc(Cc2cnc(N)nc2N)cc(/C=C/C(=O)N2N=Cc3ccccc3C2c2ccccc2)c1OC (stereo not given)	≤ 25.6
COc1cc(Cc2cnc(N)nc2N)cc(/C=C/C(=O)N2N=Cc3ccccc3C2CCCO)c1OC (stereo not given)	≤ 64
COc1cc(Cc2cnc(N)nc2N)cc(CCC(=O)N2N=Cc3ccccc3C2C)c1OC (stereo not given)	≤ 64
CCC1c2ccccc2C=NN1C(=O)/C=C/c1cc(Cc2cnc(N)nc2N)cc(OC)c1OC (stereo not given)	≤ 32
CCCCC1c2ccccc2C=NN1C(=O)/C=C/c1cc(Cc2cnc(N)nc2N)cc(OC)c1OC (stereo not given)	≤ 12.8
COc1cc(Cc2cnc(N)nc2N)cc(/C=C/C(=O)N2N=Cc3ccccc3C2C2CCCC2)c1OC (stereo not given)	≤ 25.6
